Data as given in patent US12077503B2, “Substituted cyclic amides and their use as herbicides” (FMC CORPORATION, priority 2015, dated 2024).

Experiments:
Format in all cases: in vivo
[1] = tested on: ryegrass, Italian (Italian ryegrass, Lolium multiflorum); experiment: Test A preemergence; conditions: Lolium multiflorum, pre-emergence, 240 h, Preemergence
Outline: (§1)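 Seeds sprayed preemergence with a directed soil spray, or plants at 2 to 10 cm height and one- to two-leaf stage sprayed postemergence, with test chemicals in a non-phytotoxic solvent mixture containing surfactant, in loam soil–sand blend. Injury rated visually against untreated controls after about 10 d in greenhouse, 0 (no effect) to 100 (complete control).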

[2] = tested on: pigweed (Amaranthus retroflexus); experiment: Test A preemergence; conditions: Amaranthus retroflexus, pre-emergence, 240 h, Preemergence
[3] = tested on: barnyardgrass (Echinochloa crus-galli); experiment: Test A preemergence; conditions: Echinochloa crus-galli, pre-emergence, 240 h, Preemergence
Outline: as §1

[4] = tested on: ragweed (common ragweed, Ambrosia elatior); experiment: Test A preemergence; conditions: Ambrosia artemisiifolia, pre-emergence, 240 h, Preemergence
Outline: as §1

Kochia (Kochia scoparia) [5] = experiment: Test A preemergence; conditions: Bassia scoparia, pre-emergence, 240 h, Preemergence
Outline: as §1

[6] = tested on: giant foxtail (Setaria faberii); experiment: Test A preemergence; conditions: Setaria faberi, pre-emergence, 240 h, Preemergence
Outline: as §1

[7] = tested on: ducksalad (Heteranthera limosa); experiment: Test B flooded paddy test; conditions: Heteranthera limosa, 250 g ai/ha, Flood; 0 to 100 scale where 0 is no effect and 100 is complete control; read-out: Ducksalad plant response rating
Outline: (§2)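 Flooding to 3 cm over soil accompanied treatment, which consisted of adding compound to the standing water around 2-leaf plants; depth was then maintained. Visual assessment versus controls followed at 13 to 15 d (scale 0–100, 0 meaning no effect).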

rice (Oryra sativa) = experiment: Test B flooded paddy test; conditions: Oryza sativa, 250 g ai/ha, Flood; 0 to 100 scale where 0 is no effect and 100 is complete control; read-out: Rice plant response rating
Outline: as §2

[8] = tested on: barnyardgrass (Echinochloa crus-galli); experiment: Test B flooded paddy test; conditions: Echinochloa crus-galli, 250 g ai/ha, Flood; 0 to 100 scale where 0 is no effect and 100 is complete control; read-out: Barnyardgrass plant response rating
Outline: as §2

[9] = tested on: sedge, umbrella (small-flower umbrella sedge, Cyperus difformis); experiment: Test B flooded paddy test; conditions: Cyperus difformis, 250 g ai/ha, Flood; 0 to 100 scale where 0 is no effect and 100 is complete control; read-out: Sedge, Umbrella plant response rating
Outline: as §2

[10] = tested on: wheat (Triticum aestivum); experiment: Test A postemergence; conditions: Triticum aestivum, post-emergence, 240 h, Postemergence, read-out: Plant response rating, Wheat
Outline: as §1

[11] = tested on: ryegrass, Italian (Italian ryegrass, Lolium multiflorum); experiment: Test A postemergence; conditions: Lolium multiflorum, post-emergence, 240 h, Postemergence, read-out: Plant response rating, Ryegrass, Italian
Outline: as §1

[12] = tested on: pigweed (Amaranthus retroflexus); experiment: Test A postemergence; conditions: Amaranthus retroflexus, post-emergence, 240 h, Postemergence, read-out: Plant response rating, Pigweed
Outline: as §1

[13] = tested on: blackgrass (Alopecurus myosuroides); experiment: Test A postemergence; conditions: Alopecurus myosuroides, post-emergence, 240 h, Postemergence, read-out: Plant response rating, Blackgrass
Outline: as §1

[14] = tested on: barnyardgrass (Echinochloa crus-galli); experiment: Test A postemergence; conditions: Echinochloa crus-galli, post-emergence, 240 h, Postemergence, read-out: Plant response rating, Barnyardgrass
Outline: as §1

[15] = tested on: ragweed (common ragweed, Ambrosia elatior); experiment: Test A postemergence; conditions: Ambrosia artemisiifolia, post-emergence, 240 h, Postemergence, read-out: Plant response rating, Ragweed
Outline: as §1

Kochia (Kochia scoparia) [16] = experiment: Test A postemergence; conditions: Bassia scoparia, post-emergence, 240 h, Postemergence, read-out: Plant response rating, Kochia
Outline: as §1

corn (Zea mays) = experiment: Test A postemergence; conditions: Zea mays, post-emergence, 240 h, Postemergence
Outline: as §1

[17] = tested on: giant foxtail (Setaria faberii); experiment: Test A postemergence; conditions: Setaria faberi, post-emergence, 240 h, Postemergence, read-out: Plant response rating, Foxtail, Giant
Outline: as §1

[18] = tested on: Galium (catchweed bedstraw, Galium aparine); experiment: Test A postemergence; conditions: Galium, post-emergence, 240 h, Postemergence, read-out: Plant response rating, Galium
Outline: as §1

[19] = 125 g ai/ha, visual injury after approximately 10 d, 0 to 100 scale where 0 is no effect and 100 is complete control
[20] = 31 g ai/ha, visual injury after approx. 10 d, 0 to 100 scale, 0 no effect, 100 complete control

CN1CC[C@H](c2ccccc2C(F)(F)F)[C@@H](C(=O)Nc2ccc(F)c(F)c2F)C1=O [Compound 1010]
0%: pest or weed control at 31 g/ha ([1]; 31 g ai/ha, 0 to 100 scale where 0 is no effect and 100 is complete control, read-out: Ryegrass, Italian plant response rating) | pest or weed control at 125 g/ha ([1]; 125 g ai/ha, visual injury rating after approximately 10 d, read-out: Ryegrass, Italian plant response rating (0 to 100 scale, 0 is no effect, 100 is complete control)) | pest or weed control at 31 g/ha ([2]; 31 g ai/ha, 0 to 100 scale where 0 is no effect and 100 is complete control, read-out: Pigweed plant response rating) | pest or weed control at 125 g/ha ([2]; 125 g ai/ha, visual injury rating after approximately 10 d, read-out: Pigweed plant response rating (0 to 100 scale, 0 is no effect, 100 is complete control)) | pest or weed control at 125 g/ha ([3]; 125 g ai/ha, visual injury rating after approximately 10 d, read-out: Barnyardgrass plant response rating (0 to 100 scale, 0 is no effect, 100 is complete control)) | pest or weed control at 31 g/ha ([3]; 31 g ai/ha, 0 to 100 scale (0 no effect, 100 complete control), read-out: Plant response rating, Barnyardgrass) | pest or weed control at 31 g/ha ([4]; 31 g ai/ha, 0 to 100 scale where 0 is no effect and 100 is complete control, read-out: Ragweed plant response rating) | pest or weed control at 125 g/ha ([4]; 125 g ai/ha, visual injury rating after approximately 10 d, read-out: Ragweed plant response rating (0 to 100 scale, 0 is no effect, 100 is complete control)) | pest or weed control at 31 g/ha (Kochia (Kochia scoparia) [5]; 31 g ai/ha, 0 to 100 scale where 0 is no effect and 100 is complete control, read-out: Kochia plant response rating) | pest or weed control at 125 g/ha (Kochia (Kochia scoparia) [5]; 125 g ai/ha, visual injury rating after approximately 10 d, read-out: Kochia plant response rating (0 to 100 scale, 0 is no effect, 100 is complete control)) | pest or weed control at 125 g/ha ([6]; 125 g ai/ha, visual injury rating after approximately 10 d, read-out: Foxtail, Giant plant response rating (0 to 100 scale, 0 is no effect, 100 is complete control)) | pest or weed control at 31 g/ha ([6]; 31 g ai/ha, 0 to 100 scale (0 no effect, 100 complete control), read-out: Plant response rating, Foxtail, Giant) | pest or weed control at 250 g/ha [7] | pest or weed control at 250 g/ha (rice (Oryra sativa)) | pest or weed control at 250 g/ha [8] | pest or weed control at 250 g/ha [9] | plant injury at 125 g/ha [10, 19] | plant injury at 31 g/ha [10, 20] | pest or weed control at 125 g/ha [11, 19] | pest or weed control at 31 g/ha [11, 20] | pest or weed control at 125 g/ha [12, 19] | pest or weed control at 31 g/ha [12, 20] | pest or weed control at 125 g/ha [13, 19] | pest or weed control at 31 g/ha [13, 20] | pest or weed control at 125 g/ha [14, 19] | pest or weed control at 31 g/ha [14, 20] | pest or weed control at 125 g/ha [15, 19] | pest or weed control at 31 g/ha [15, 20] | pest or weed control at 125 g/ha (Kochia (Kochia scoparia) [16]; [19]) | pest or weed control at 31 g/ha (Kochia (Kochia scoparia) [16]; [20]) | Corn plant response rating (crop injury, 0 = no effect, 100 = complete kill) at 125 g/ha (corn (Zea mays); [19]) | Corn plant response rating (crop injury, 0 = no effect, 100 = complete kill) at 31 g/ha (corn (Zea mays); [20]) | pest or weed control at 125 g/ha [17, 19] | pest or weed control at 31 g/ha [17, 20] | pest or weed control at 125 g/ha [18, 19] | pest or weed control at 31 g/ha [18, 20]
